{
  "source": "PubChem BioAssay AID1963975",
  "about": "(Molecular Pharmacology Branch, DTP, NCI, 2024);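 also: spheroids exposed to agents for 7 days before viability read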;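 as to viability, T/C: 100% = DMSO vehicle treated spheroids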",
  "test_system": "624824-186-R-J2-PDC multicell spheroids, viability",
  "assay": "Anticancer human tumor 624824-186-R-J2-PDC patient-derived colon adenocarcinoma cell line growth inhibition [PI3K]",
  "conditions": "for IC50: curve of first compound; for viability, T/C: stronger effect = lower value",
  "method_in_brief": "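Tumor cells were combined with HUVEC and MSCs into spheroids, then dosed with PI3K-inhibitor combinations over half-log ranges capped near clinical Cmax or 10 microM.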",
  "data": [
    {"smiles": "CC1(C)CCC(Nc2ncc(C(F)(F)F)c(-c3c[nH]c4c(P(C)(C)=O)c(C#N)ccc34)n2)CN1", "note": "(configuration not stated) + Cc1nc(NC(=O)N2CCCC2C(N)=O)sc1-c1ccnc(C(C)(C)C(F)(F)F)c1", "values": [
      {"measurement": "IC50", "setting": "second compound 0.0316 µM", "value": 4.26, "unit": "µM"},
      {"measurement": "IC50", "setting": "second compound 0.1 µM", "value": 4.34, "unit": "µM"},
      {"measurement": "IC50", "setting": "second compound 0.316 µM", "value": 4.4, "unit": "µM"},
      {"measurement": "IC50", "setting": "second compound 1 µM", "value": 4.64, "unit": "µM"},
      {"measurement": "IC50", "setting": "second compound 3.16 µM", "value": 3.67, "unit": "µM"},
      {"measurement": "IC50", "setting": "second compound 10 µM", "value": 1.61, "unit": "µM"},
      {"measurement": "viability, T/C", "setting": "second compound 0.0316 µM, first compound 0.0316 µM", "value": 81.3, "unit": "%"},
      {"measurement": "viability, T/C", "setting": "second compound 0.0316 µM, first compound 0.1 µM", "value": 99.4, "unit": "%"},
      {"measurement": "viability, T/C", "setting": "second compound 0.0316 µM, first compound 0.316 µM", "value": 103, "unit": "%"},
      {"measurement": "viability, T/C", "setting": "second compound 0.0316 µM, first compound 1 µM", "value": 121, "unit": "%"},
      {"measurement": "viability, T/C", "setting": "second compound 0.0316 µM, first compound 3.16 µM", "value": 64.8, "unit": "%"},
      {"measurement": "viability, T/C", "setting": "second compound 0.0316 µM, first compound 10 µM", "value": 7.6, "unit": "%"},
      {"measurement": "viability, T/C", "setting": "second compound 0.1 µM, first compound 0.0316 µM", "value": 92.7, "unit": "%"},
      {"measurement": "viability, T/C", "setting": "second compound 0.1 µM, first compound 0.1 µM", "value": 92.9, "unit": "%"},
      {"measurement": "viability, T/C", "setting": "second compound 0.1 µM, first compound 0.316 µM", "value": 99.4, "unit": "%"},
      {"measurement": "viability, T/C", "setting": "second compound 0.1 µM, first compound 1 µM", "value": 108, "unit": "%"},
      {"measurement": "viability, T/C", "setting": "second compound 0.1 µM, first compound 3.16 µM", "value": 66.1, "unit": "%"},
      {"measurement": "viability, T/C", "setting": "second compound 0.1 µM, first compound 10 µM", "value": 7.74, "unit": "%"},
      {"measurement": "viability, T/C", "setting": "second compound 0.316 µM, first compound 0.0316 µM", "value": 100, "unit": "%"},
      {"measurement": "viability, T/C", "setting": "second compound 0.316 µM, first compound 0.1 µM", "value": 81.8, "unit": "%"},
      {"measurement": "viability, T/C", "setting": "second compound 0.316 µM, first compound 0.316 µM", "value": 92.1, "unit": "%"},
      {"measurement": "viability, T/C", "setting": "second compound 0.316 µM, first compound 1 µM", "value": 115, "unit": "%"},
      {"measurement": "viability, T/C", "setting": "second compound 0.316 µM, first compound 3.16 µM", "value": 67.6, "unit": "%"},
      {"measurement": "viability, T/C", "setting": "second compound 0.316 µM, first compound 10 µM", "value": 6.46, "unit": "%"},
      {"measurement": "viability, T/C", "setting": "second compound 1 µM, first compound 0.0316 µM", "value": 96, "unit": "%"},
      {"measurement": "viability, T/C", "setting": "second compound 1 µM, first compound 0.1 µM", "value": 93.4, "unit": "%"},
      {"measurement": "viability, T/C", "setting": "second compound 1 µM, first compound 0.316 µM", "value": 97.7, "unit": "%"},
      {"measurement": "viability, T/C", "setting": "second compound 1 µM, first compound 1 µM", "value": 93.6, "unit": "%"},
      {"measurement": "viability, T/C", "setting": "second compound 1 µM, first compound 3.16 µM", "value": 72, "unit": "%"},
      {"measurement": "viability, T/C", "setting": "second compound 1 µM, first compound 10 µM", "value": 5.53, "unit": "%"},
      {"measurement": "viability, T/C", "setting": "second compound 3.16 µM, first compound 0.0316 µM", "value": 79, "unit": "%"},
      {"measurement": "viability, T/C", "setting": "second compound 3.16 µM, first compound 0.1 µM", "value": 83.8, "unit": "%"},
      {"measurement": "viability, T/C", "setting": "second compound 3.16 µM, first compound 0.316 µM", "value": 91.4, "unit": "%"},
      {"measurement": "viability, T/C", "setting": "second compound 3.16 µM, first compound 1 µM", "value": 74, "unit": "%"},
      {"measurement": "viability, T/C", "setting": "second compound 3.16 µM, first compound 3.16 µM", "value": 57.3, "unit": "%"},
      {"measurement": "viability, T/C", "setting": "second compound 3.16 µM, first compound 10 µM", "value": 5.49, "unit": "%"},
      {"measurement": "viability, T/C", "setting": "second compound 10 µM, first compound 0.0316 µM", "value": 77.8, "unit": "%"},
      {"measurement": "viability, T/C", "setting": "second compound 10 µM, first compound 0.1 µM", "value": 73.8, "unit": "%"},
      {"measurement": "viability, T/C", "setting": "second compound 10 µM, first compound 0.316 µM", "value": 62, "unit": "%"},
      {"measurement": "viability, T/C", "setting": "second compound 10 µM, first compound 1 µM", "value": 54.5, "unit": "%"},
      {"measurement": "viability, T/C", "setting": "second compound 10 µM, first compound 3.16 µM", "value": 45.2, "unit": "%"},
      {"measurement": "viability, T/C", "setting": "second compound 10 µM, first compound 10 µM", "value": 6.69, "unit": "%"}
    ]}
  ]
}
